In patent publication US6262083A, “Genipin derivative having liver protection activity” (priority 1997, dated 2001):
Where two headings read alike, the source gives them in different places.

What was measured:
liver cells = assay: liver protection effect in carbon tetrachloride / D-galactosamine model, serum ALT (GPT) or AST in rats, oral for 4 days; format: in vivo; settings: 100 mg/kg, p.o
Method: The efficacy of compounds of formulas (I)a, (I)b, (I)c and (I)d was measured according to the method of carbon tetrachloride model [referred to: Philippe letteron et al., Biochemical Pharmacology, 39, 12, 2027~2034, 1990] and D-galactosamine model [referred to: Koji Hase et al., Biol. Pharm. Bull., 20, 4, 381~385, 1997].
Carbon tetrachloride and D-galactosamine are known as the compounds inducing the severe damage to liver cells, because carbon tetrachloride suppresses the biosysthesis of protein in the liver and induces the necrosis of liver cells, and D-galactosamine also induces the necrosis of liver cells by changing the structure of liver cell membranes.
In the present invention, the compounds of formulas (I)a, (I)b, (I)c and (I)d were orally administered to the rats as experimental animals for 4 days, and then the liver protection effect was examined by measuring the serum ALT or AST values in the experimental animals (referred to: Biol. Prarm. Bull., 20, 4, 38 1~385, 1997; Toxicology and Applied Pharmacology, 95, 1~11, 1988).
Following is calculation formula to evaluate liver protection properties of compounds of formulas (I)a, (I)b, (I)c and (I)d; [formula]
the control group means the group to which carbon tetrachloride or D-galactosamine is administered and the liver cells are impaired;
the normal group means the group to which normal solution is administered.
The liver protection effects of compounds of formulas (I)a, (I)b, (I)c and (I)d are shown to following Table 1 in comparison with known liver protection compound silimarin.

ICR mouse = assay: acute toxicity in ICR mouse; format: in vivo
Method: (§1) On the other hand, the acute toxicity of compounds of formulas (I)a, (I)b, (I)c and (I)d is measured using mouse according to the standard of drug toxicity test. The mouse is selected from the 4 weeks old ICR mouse and each dosage of 250 mg/kg, 500 mg/kg, 1,000 mg/kg and 2,000 mg/kg compounds of formulas (I)a, (I)b, (I)c and (I)d are administered after suspending the compounds in the corn oil.

[1] = acute toxicity in ICR mouse; format: in vivo; settings: mouse, in vivo, read-out: Lethal ratio (%)
Method: as §1

HBV [2] = assay: inhibitory effect on HBV replication in 2.2.15 cell culture; format: cell-based; settings: for EC50: Hepatitis B virus, 216 h, read-out: ED50 (inhibitory effect on HBV replication); for SI (selectivity Index, IC50/ED50): cytotoxicity IC50 / anti-HBV ED50, 2.2.15 cell
Method: Test for identifying the anti HBV effect of the compound of the present invention was carried out according to a known assay method (see, Korba and Milman, Antiviral Res., 15, 217, 1991). The assay procedure is briefly described in the following.
2.2.15. cell was cultured and preserved in RPM 11640 culture medium containing 5% fetal bovine serum (FBS), 2 mM glutamine and 50 μg/ml gentamicin sulfate. Resistance to G418 of the cell culture and degree of Mycoplasma contamination were examined according to conventional methods.
Cells (1×10^4 /cm^2) were inoculated into a multi-well tissue culture plate, confluently cultured for 7 days, and then kept for 2 or 3 days in confluent condition to stabilize the HBV DNA level. Then, culture medium was replaced 24 hours before cells were exposed to test compound. During the treatment of 9 days, culture medium was replaced and then test compound was added to the fresh culture medium at intervals of 24 hours. Culture medium was collected immediately before the first introduction of test compound, and after 3, 6, 9 days, respectively, and stored at -70° C. before HBV DNA analysis. Then, cytolysis was carried out to analyze the intracellular HBV DNA.
To analyze the extracellular HBV DNA, 0.2 ml of culture medium was incubated in 1M NaOH/10×SSC (1×SSC=0.15M NaCl/0.015M sodium citrate, pH 7.2) for 20 minutes at 25° C. and then immediately applied to a nitrocellulose membrane presoaked in 20×SSC using a slot blot apparatus. The sample was washed twice with 0.5 ml of 1M Tris/2M NaCl (pH 7.2) and once with 0.5 ml of 20×SSC to neutralize, and then it was washed again with 2×SSC and heated at […] for one hour under vacuum. Generally, the cells which have been cultured and preserved in a dish having a diameter of 10 cm are dissolved in 6 ml of lysis buffer, and the […] DNA is prepared according to the method of Korba et al., 1991.
10 μg/lane of cellular DNA sample was digested with restriction enzyme Hind III. Then, the digested sample was applied to 1% agarose gel electrophoresis and transferred to a nitrocellulose membrane.
3.2 kb HBV DNA fragment obtained by EcoR I-digestion and purification was labeled with [^32 P]dCTP using nick translation method. This labeled fragment was used as a hybridization probe. Condition for hybridization and post-washing were controlled by referring to the method of Korba et al., 1991 and HBV nucleic acid content among test sample was determined by Ambis beta scanner. The relative radioactivity of ^32 P hybridized to the test sample was compared with that of ^32 P hybridized to the standard amount of HBV DNA which was applied to each nitrocellulose membrane filter (gel or slot blot). From the calibration curve, the amount of HBV DNA corresponding to the relative cpm value was calculated.
Since the content of intracellular and extracellular HBV DNA has some inherent variations, only inhibition greater than 3.5-fold in the case of HBV virion DNA or 3.0-fold in the case of HBV DNA replication intermediates form the average level of HBV DNA formed in the untreated cell were considered to be statistically significant (P<0.05) in the present experiment. The lever of HBV DNA integrated during each cellular DNA preparation (which remains constant per cell in the present experiment) was used to calculate the level of intracellular HBV DNA formed, thereby the technical variations inherent in the blot hybridization analysis can be eliminated. Typical values for extracellular HBV virion DNA in the untreated cells ranged from 50 to 150 pg/ml culture medium with an average value of about 75 pg/ml. Intracellular HBV DNA replication intermediates (RI) in the untreated cells ranged form 50 to 100 pg/μg cellular DNA with an average value of about 74 pg/μg. […]

[3] = cytotoxicity test, neutral red dye uptake method; format: cell-based; settings: human, 2.2.15 cells, 2.2.15 cell culture, A510, read-out: IC50 (cytotoxicity)
Method: Cytotoxivity test was carried out in order to determine whether the antiviral effect of the compound according to the present invention is due to the general influence on cell growth or not. In the present experiment, neutral red dye uptake method was used. This is a standard method widely utilized for examining cell survival, by which the variety of relations between viruses such as HSV or HIV and host organism can be understood.
Cytotoxicity test was performed on a 96-well tissue culture plate. Cells were cultured and treated with test compounds in the same manner as Biological Example 1, and the experiments at 4-kind concentrations were repeated threetimes, respectively. Since the relative toxicity can be determined form the uptake level of neutral red dye, quantitative analysis was carried out using the absorbance of internalized dye at 510 nm (A510).

HBV [4] = settings: Korean Patent Laid-open No. 94-1886; cited from earlier work
[5] = cited from earlier work; for in vivo activities: in words
[6] = 2.2.15 cell culture, 9 days treatment

SMILES | Liver protection effect (GPT, %) (liver cells) | Number of dead animals/Number of administered animals (ICR mouse; 250 mg/kg) | Number of dead animals/Number of administered animals (ICR mouse; 1000 mg/kg) | Number of dead animals/Number of administered animals (ICR mouse; 2000 mg/kg) | mortality ([1]; 250 mg/kg) | mortality ([1]; 500 mg/kg) | mortality ([1]; 1000 mg/kg) | mortality ([1]; 2000 mg/kg) | EC50 (HBV [2]; [6]) | SI (selectivity Index, IC50/ED50) (HBV [2]) | CC50 at 216 h [3] | Number of dead animals/Number of administered animals (ICR mouse; 500 mg/kg) | HBV replication (HBV [4]) | in vivo activities [5] | EC50 (HBV [2]) | anti-tumor effect ([5]; Japanese Patent Laid-open No. 80/164625)
COC(=O)C1=CO[C@@H](OCc2ccccc2)[C@@H]2C(CN=[N+]=[N-])=CC[C@H]12 [Compound (I)a, methyl (7R,3aS,7aS)-1-azidomethyl-7-benzyloxy-3,7,3a,7a-tetrahydro-6-oxaindene-4-carboxylate] | 65% | 0/5 | 0/5 | 0/5 | 0% | 0% | 0% | 0% | 80 µM | 4.5 | 120 µM |  |  |  |  | 
COC(=O)C1=CO[C@@H]2O[C@H](OC)[C@@H]3CC[C@H]1[C@H]23 [Compound (I)b, (2S,2aR,4aS,7aR,7bS)-2-methoxy-5-methoxycarbonyl-2a,3,4,4a,7a,7b-hexa-hydro-2H-1,7-dioxacyclopent[c.d]indene] | 57% | 0/5 | 0/5 | 0/5 | 0% | 0% | 0% | 0% | 40 µM | 3.0 | 90 µM | 0/5 |  |  |  | 
COC(=O)C1=CO[C@@H](OCc2ccccc2)[C@@H]2C(/C=N/OC(C)(C)C)=CC[C@H]12 [Compound (I)c, methyl (1S,5R,6S)-5-benzyloxy-7-(t-buthoxyiminomethyl)-4-oxa-bicyclo [4.3.0]nona-2,7-dien-2-carboxylate] | 64% | 0/5 | 0/5 | 0/5 | 0% | 0% | 0% | 0% | 30 µM | 5.7 | 180 µM | 0/5 |  |  |  | 
COC(=O)C1=CO[C@H](OCc2ccccc2)[C@H]2[C@@H]1CC1OC(C)(C)OC12CNC(=O)Nc1cccnc1 (stereo partly drawn) [Compound (I)d, methyl (1S,8S,12S)-2-[(3-pyridyl)ureido]methyl-4,4-dimethyl-3,5,11-trioxa-12-benzyloxy-tricyclo[6.4.0.0<2,6>]dodec-9-en-9-carboxylate] | 74% | 0/5 | 0/5 | 0/5 | 0% | 0% | 0% | 0% | 20 µM | 2.5 | 70 µM | 0/5 |  |  |  | 
OCC1=C[C@@H](O)[C@@H]2C=CO[C@@H](O[C@@H]3O[C@H](CO)[C@@H](O)[C@H](O)[C@H]3O)[C@H]12 [aucubin] |  |  |  |  |  |  |  |  |  |  |  |  | inhibit the HBV replication | liver-protection, inhibition of biosynthesis of RNA and protein, detoxification as well as antiviral activity |  | 
Nc1ccn([C@H]2CC[C@@H](CO)O2)c(=O)n1 [ddC, dideoxy cytidine, reference compound] |  |  |  |  |  |  |  |  |  | > 2.0 | > 30 µM |  |  |  | 15 µM | 
COC(=O)C1=CO[C@@H](O)[C@@H]2C(CO)=CC[C@H]12 [genipin] |  |  |  |  |  |  |  |  |  |  |  |  | inhibit the HBV replication | liver-protection, inhibition of biosynthesis of RNA and protein, detoxification as well as antiviral activity |  | effective as an anti-tumor agent
